In the supplement of paper PMC10307832:

What was measured:
Experiment in all cases: relative viability (nuclei count vs DMSO), 5 days (fraction); higher = more cells survive
Avagacestat + Alpelisib = compound: NC(=O)[C@@H](CCC(F)(F)F)N(Cc1ccc(-c2ncon2)cc1F)S(=O)(=O)c1ccc(Cl)cc1 [Avagacestat] + Cc1nc(NC(=O)N2CCC[C@H]2C(N)=O)sc1-c1ccnc(C(C)(C)C(F)(F)F)c1 [Alpelisib] (partner 2 µM)
In short: (§1)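 Relative viability equals treated-well nuclei counts divided by vehicle-well nuclei counts. Counts came from 4× images of lung cancer cell lines grown in 1536-well plates for 5 days after pin-tool dosing on the day after seeding. Dosing used one drug alone or a fixed anchor-drug dose plus five library-drug doses (not always all listed) in √10 steps, and values are medians of duplicate plates.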

Avagacestat + Bortezomib = compound: NC(=O)[C@@H](CCC(F)(F)F)N(Cc1ccc(-c2ncon2)cc1F)S(=O)(=O)c1ccc(Cl)cc1 [Avagacestat] + CC(C)C[C@H](NC(=O)[C@H](Cc1ccccc1)NC(=O)c1cnccn1)B(O)O [Bortezomib] (partner 0.002 µM)
In short: as §1

Avagacestat + Olaparib = compound: NC(=O)[C@@H](CCC(F)(F)F)N(Cc1ccc(-c2ncon2)cc1F)S(=O)(=O)c1ccc(Cl)cc1 [Avagacestat] + O=C(c1cc(Cc2n[nH]c(=O)c3ccccc23)ccc1F)N1CCN(C(=O)C2CC2)CC1 [Olaparib] (partner 8 µM)
In short: as §1

Avagacestat + Pemetrexed = compound: NC(=O)[C@@H](CCC(F)(F)F)N(Cc1ccc(-c2ncon2)cc1F)S(=O)(=O)c1ccc(Cl)cc1 [Avagacestat] + Nc1nc2[nH]cc(CCc3ccc(C(=O)N[C@@H](CCC(=O)O)C(=O)O)cc3)c2c(=O)[nH]1 [Pemetrexed] (partner 0.2 µM)
In short: as §1

Cell Line	relative viability (Avagacestat + Alpelisib; first compound 0.08 µM)	relative viability (Avagacestat + Alpelisib; first compound 0.253 µM)	relative viability (Avagacestat + Alpelisib; first compound 0.8 µM)	relative viability (Avagacestat + Alpelisib; first compound 8 µM)	relative viability (Avagacestat + Bortezomib; first compound 0.08 µM)	relative viability (Avagacestat + Bortezomib; first compound 0.253 µM)	relative viability (Avagacestat + Bortezomib; first compound 0.8 µM)	relative viability (Avagacestat + Bortezomib; first compound 8 µM)	relative viability (Avagacestat + Olaparib; first compound 0.08 µM)	relative viability (Avagacestat + Olaparib; first compound 0.253 µM)	relative viability (Avagacestat + Olaparib; first compound 0.8 µM)	relative viability (Avagacestat + Olaparib; first compound 2.53 µM)	relative viability (Avagacestat + Olaparib; first compound 8 µM)	relative viability (Avagacestat + Pemetrexed; first compound 0.08 µM)	relative viability (Avagacestat + Pemetrexed; first compound 0.253 µM)	relative viability (Avagacestat + Pemetrexed; first compound 0.8 µM)	relative viability (Avagacestat + Pemetrexed; first compound 2.53 µM)	relative viability (Avagacestat + Pemetrexed; first compound 8 µM)	relative viability (Avagacestat + Alpelisib; first compound 2.53 µM)	relative viability (Avagacestat + Bortezomib; first compound 2.53 µM)
NCI-H661	0.803	0.664	1.08	0.589	0.919	1.06	0.774	0.693	0.795	0.918	0.771	0.774	0.725	0.953	1.01	0.92	0.86	0.909		
NCI-H838	1.19	1.18	1.06	0.814	0.977	0.922	0.93	0.502	1.08	0.87	0.881	0.805	0.575	0.263	0.271	0.28	0.238	0.243	0.906	0.863
NCI-H1355	0.924	0.994	0.74	0.787	1.37	1.38	1.33	1.1	0.851	0.778	0.73	0.691	0.718	1.15	1.15	1.21	0.996	0.943	0.759	1.14
NCI-H1437	1.22	1.25	0.921	0.849	0.602	0.69	0.519	0.282	0.804	0.743	0.696	0.667	0.543	0.336	0.346	0.329	0.301	0.298	0.894	0.379
NCI-H1651	1.05	1.3	1.15	0.909	1.06	1.07	1.05	0.933	0.219	0.188	0.179	0.19	0.19	0.71	0.591	0.731	0.574	0.559	0.978	0.944
NCI-H1666	1.26	0.982	1.32	1.1	0.942	0.78	0.861	0.842	0.843	0.863	0.808	0.955	0.758	0.938	0.871	0.877	0.822	0.889	1.03	0.83
NCI-H1734	0.896	0.641	0.737	0.67	1.26	1.01	1.01	0.945	0.731	0.747	0.614	0.574	0.633	0.437	0.398	0.401	0.426	0.434	0.674	1.01
NCI-H1755	1.24	1.1	1.05	0.777	0.996	1.11	1.07	0.937	0.894	0.957	0.901	0.914	0.884	0.541	0.478	0.383	0.372	0.383	0.939	0.967
NCI-H1792	0.871	0.618	0.774	0.562	1.6	1.06	1.37	0.766	0.673	0.605	0.563	0.408	0.726	1.54	1.08	1.28	0.818	0.451	0.541	0.832
NCI-H1915	1.03	1.12	1.04	1.02	1.02	1.11	1.13	0.951	0.264	0.28	0.257	0.249	0.227	0.521	0.573	0.537	0.5	0.52	1.03	1
NCI-H1975	0.686	0.62	0.719	0.665	0.382	0.343	0.415	0.318	1.03	1.04	0.94	0.814	0.665	0.312	0.325	0.316	0.291	0.308	0.585	0.327
NCI-H1993	0.756	0.691	0.693	0.727	1.37	1.35	1.47	1.3	1.28	1.1	1.17	1.17	0.836	0.826	0.542	0.686	0.684	0.504	0.752	1.27
NCI-H2009	1.28	1.29	1.16	1.08	1.04	1.03	1.07	0.828	0.718	0.73	0.779	0.667	0.66	1.16	1.15	1.11	1.02	0.975	1.18	1.02
NCI-H2023	0.659	0.781	0.536	0.536	1.13	1.1	1.08	0.808	0.751	0.52	0.479	0.493	0.475	0.322	0.221	0.302	0.257	0.221	0.562	0.886
NCI-H2085	1.15	1.07	1.08	1.05	1.13	1.21	1.14	0.992	0.823	0.833	0.847	0.825	0.8	0.856	0.871	1.04	0.902	0.861	1	1.13
NCI-H2087	1.12	1.26	1.28	1.03	0.946	1.05	0.917	0.8	0.806	0.613	0.884	0.62	0.543	0.658	0.651	0.741	0.632	0.662	1.18	0.918
NCI-H2126	0.737	0.743	0.747	0.68	1.15	1.1	1.1	1.02	0.921	0.941	0.931	1.03	0.873	0.67	0.687	0.698	0.605	0.683	0.734	1.18
NCI-H2228	0.842	0.619	0.773	0.698	1.12	0.952	1.05	0.734	0.642	0.862	0.8	0.658	0.59	0.364	0.35	0.346	0.301	0.302	0.567	0.886
NCI-H2347	1.15	1.08	1.12	1.02	1.1	0.914	0.935	0.79	0.611	0.589	0.601	0.548	0.554	0.426	0.454	0.447	0.465	0.406	0.957	0.862
NCI-H2405	0.717	0.742	0.735	0.625	1.06	1.03	0.999	0.94	0.976	0.911	0.978	0.778	0.826	1.15	1.17	1.12	1.01	1.03	0.583	0.919
NCI-H3122	0.903	0.966	0.802	0.739	1.06	1.03	1.05	0.969	0.717	0.735	0.885	0.659	0.645	0.216	0.238	0.208	0.195	0.205	0.813	1.01
PC-3 [JPC-3]	1.04	1.18	1.12	1.03	0.789	1.01	0.924	0.914	1.21	1.28	1.36	1.13	1.2	1.24	1.36	1.62	1.25	1.04	1.12	0.902
PC-14	0.9	1.05	0.975	0.587	1.12	1.12	0.848	0.77	0.316	0.418	0.298	0.251	0.3	0.137	0.142	0.134	0.124	0.136	1.06	0.785
RERF-LC-KJ	0.813	0.823	0.831	0.703	1.17	1.37	1.16	1.02	1.07	1.12	1.06	1	0.978	0.479	0.477	0.461	0.465	0.437	0.831	1.04
SK-LU-1	1.02	0.633	0.937	0.807	1.46	1.21	1.32	0.737	0.472	0.62	0.515		0.374	1.19	0.972	0.951	0.97	0.741	0.773	1.13
SW 1573	0.858	0.855	0.688	0.494	1.26	1.03	1.19	0.922	0.643	0.572	0.465	0.472	0.47	0.99	1.01	0.925	0.887	0.85	0.753	0.967
UMC-11	1.22	1.19	1.21	0.933	0.915	0.563	0.722	0.414	0.387	0.698	0.356	0.385	0.389	0.884	0.887	1.01	0.796	0.718	0.885	0.749
